Assay in all cases: combination Emax (second highest fraction inhibited in the dose matrix, 72 h); higher = more inhibition; extreme values may be limits of the assay
For assay [1], the system named is B-CPAP (Thyroid Gland Carcinoma). An outline of the steps:
(§1)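 Cell lines grown in DMEM/F12 or RPMI with 10% FBS were plated in 1536-well plates and held 24 hours at 37°C, 5% CO2 before 72 hours of exposure to two-drug dose matrices, with DMSO typically at 0.2%. CellTiter-Glo 2.0 luminescence gave viability, which was converted to inhibition. Vehicle wells were set to 0 and blank wells to 1. Combination Emax is the second-highest inhibition in the matrix, and Bliss excess is the observed combination effect minus the expected EA + EB − EA·EB, where EA and EB are the single-agent effects.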

Assay [2] deals with CAL-148 (Breast Carcinoma). Put shortly: as §1
In assay [3] the test system is COLO-205 (Colorectal Carcinoma). Put shortly: as §1
The test system of assay [4] is Calu-3 (Lung Adenocarcinoma). Put shortly:
as §1

The subject of assay [5] is DoTc2-4510 (Cervical Carcinoma). An outline of the steps: as §1
The subject of assay [6] is HCC1806 (Breast Carcinoma). Put shortly:
as §1

Another assay deals with HOS (Osteosarcoma). Put shortly: as §1
Another assay concerns KELLY (Neuroblastoma). An outline of the steps:
as §1

The test system of assay [7] is KURAMOCHI (Ovarian Carcinoma). An outline of the steps:
as §1

Assay [8] has as its system KYSE-520 (Esophageal Squamous Cell Carcinoma). Put shortly:
as §1

Assay [9] relates to LNCaP-Clone-FGC (Prostate Carcinoma). Put shortly: as §1
For assay [10], the system named is LS-180 (Colorectal Carcinoma). An outline of the steps: as §1
For assay [11], the system named is LU-135 (Small Cell Lung Carcinoma). An outline of the steps: as §1
The test system of assay [12] is ME-1 (Acute Myeloid Leukemia). Put shortly:
as §1

A further assay concerns NB10 (Neuroblastoma). Put shortly: as §1
The next assay has as its system NOS-1 (Osteosarcoma). An outline of the steps:
as §1

Assay [13] deals with OVCA420 (Ovarian Carcinoma). An outline of the steps:
as §1

In assay [14] the test system is RO82-W-1 (Thyroid Gland Carcinoma). An outline of the steps: as §1
Assay [15] relates to Ramos-2G6-4C10 (Burkitt's Lymphoma). Put shortly: as §1
Assay [16] deals with SK-ES-1 (Ewing's Sarcoma). Put shortly: as §1

As to `CC1(C)CCC(CN2CCN(c3ccc(C(=O)NS(=O)(=O)c4ccc(NCC5CCOCC5)c([N+](=O)[O-])c4)c(Oc4cnc5[nH]ccc5c4)c3)CC2)=C(c2ccc(Cl)cc2)C1` [Venetoclax] + CCN(CCO)CCCOc1ccc2c(Nc3cc(CC(=O)Nc4cccc(F)c4)[nH]n3)ncnc2c1 [AZD2811] (first compound max 1 µM, 7x7, partner max 1 µM), the “combination Emax” value in assay [1] is 0.206; in assay [2], 0.933; in assay [3], 0.713; in assay [4], 0.175; in assay [5], 0.235; in assay [6], 0.212. The “combination Emax” value in the assay on HOS (Osteosarcoma) was found to be 0.214; in the assay on KELLY (Neuroblastoma) it was 0.985; in assay [7], 0.471; in assay [8], 0.304; in assay [9] it was 0.272; in assay [10], 0.244. For the same molecule, the “combination Emax” value was determined as 0.899 in [11]; 1 in [12]; 0.5 in the assay with NB10 (Neuroblastoma); 0.255 with NOS-1 (Osteosarcoma); 0.188 in assay [13]; 0.141 in assay [14]. For the same molecule, the “combination Emax” value came to 0.269 in assay [15] and 1 in [16].

Turning to `Cc1c2c(nn1C)CSCc1cc(n(C)n1)CSc1cc(c3ccccc3c1)OCCCc1c(C(=O)O)n(C)c3c-2c(Cl)ccc13` [AZD5991] + CN(C)CCCOc1ccc(-c2ccc3ncc4c(c3c2)n(C2CCOCC2)c(=O)n4C)cn1 [AZD0156] (first compound max 1 µM, 7x7, partner max 1 µM), the “combination Emax” value is 0.237 in [1]; 0.417 in [2]; 0.725 in assay [3]; 0.15 in assay [4]; 0.326 in assay [5]; 0.833 in [6]. Further, the “combination Emax” value turned out to be 0.278 in the assay on HOS (Osteosarcoma); 0.741 with KELLY (Neuroblastoma); 0.359 in [7]; 0.23 in assay [8]; 0.429 in assay [9]; 0.196 in assay [10]. Moreover, the “combination Emax” value in assay [11] was 0.286; in assay [12], 0.803; in the assay on NB10 (Neuroblastoma) it was 0.273; in the assay with NOS-1 (Osteosarcoma), 0.753; in assay [13], 0.191; in assay [14], 0.265. In addition, the “combination Emax” value turned out to be 0.988 in assay [15] and 0.817 in assay [16].

Consider `COc1nnc2ccc(N3CCC(c4ccc(OCCN5CCN(C)C(=O)[C@H]5C)cc4)CC3)nn12` [AZD5153] + C=CCn1c(=O)c2cnc(Nc3ccc(N4CCN(C)CC4)cc3)nc2n1-c1cccc(C(C)(C)O)n1 [AZD1775] (first compound max 1 µM, partner max 1 µM), for which the “combination Emax” value in assay [1] stood at 0.734; in assay [2] it was 0.907; in [3], 0.79; in assay [4] it was 0.632; in assay [5], 0.473; in [6], 0.9. Also, the “combination Emax” value in the assay on HOS (Osteosarcoma) was 0.501; with KELLY (Neuroblastoma), 1; in assay [7] it was 0.83; in assay [8], 0.656; in assay [9] it was 0.758; in [10], 0.623. The “combination Emax” value in assay [11] stood at 1; in assay [12], 0.572; in the assay with NB10 (Neuroblastoma), 0.749; in the assay on NOS-1 (Osteosarcoma) it was 0.867; in [13], 0.789; in [14], 0.451. Also, the figures for the “combination Emax” value in assay [15] and in assay [16] were 1 and 0.941, respectively.

Consider `CS(=O)(=O)CCNCc1ccc(-c2ccc3ncnc(Nc4ccc(OCc5cccc(F)c5)c(Cl)c4)c3c2)o1` [Lapatinib] + C[C@@H](Oc1cc(-c2cnn(C3CCNCC3)c2)cnc1N)c1c(Cl)ccc(F)c1Cl [Crizotinib] (first compound max 10 µM, 7x7, partner max 10 µM), for which the “combination Emax” value turned out to be 0.984 in assay [1]; 0.771 in assay [2]; 0.939 in assay [3]; 0.931 in assay [4]; 0.942 in [5]; 0.95 in assay [6]. Also, the “combination Emax” value in the assay on HOS (Osteosarcoma) came to 0.408; with KELLY (Neuroblastoma), 0.97; in assay [7], 0.721; in assay [8], 0.945; in [9], 0.804; in assay [10] it was 0.908. Moreover, the “combination Emax” value in assay [11] amounted to 0.94; in assay [12], 0.194; in the assay with NB10 (Neuroblastoma), 0.796; in the assay on NOS-1 (Osteosarcoma), 0.985; in assay [13], 0.964; in assay [14], 0.203. Moreover, the “combination Emax” value in assay [15] was 0.898; in assay [16], 0.938.

Turning to `Cc1c2c(nn1C)CSCc1cc(n(C)n1)CSc1cc(c3ccccc3c1)OCCCc1c(C(=O)O)n(C)c3c-2c(Cl)ccc13` [AZD5991] + CC1(C)CCC(CN2CCN(c3ccc(C(=O)NS(=O)(=O)c4ccc(NCC5CCOCC5)c([N+](=O)[O-])c4)c(Oc4cnc5[nH]ccc5c4)c3)CC2)=C(c2ccc(Cl)cc2)C1 [Venetoclax] (first compound max 1 µM, 7x7, partner max 1 µM), the “combination Emax” value was 0.18 in assay [1]; 0.411 in assay [2]; 0.135 in assay [3]; 0.135 in [4]; 0.287 in assay [5]; 0.596 in assay [6]. For the same molecule, the “combination Emax” value in the assay on HOS (Osteosarcoma) was 0.509; with KELLY (Neuroblastoma), 0.999; in [7], 0.501; in assay [8], 0.183; in assay [9], 0.228; in assay [10], 0.191. The “combination Emax” value in [11] came out at 0.478; in [12], 1; in the assay with NB10 (Neuroblastoma) it was 0.481; with NOS-1 (Osteosarcoma), 0.889; in assay [13] it was 0.187; in assay [14], 0.255. The “combination Emax” value was 0.985 in [15] and 1 in [16].

Values taken from the supplement of paper PMC11061612.
